The values that follow come from patent publication US11497787B2, “Functionalized poly-ADP-ribose polymers for drug delivery” (University of Southern California, priority 2019, dated 2022).

Assay [1] addresses T1, purified human full-length PARP1 (Homo sapiens, UniProt P09874).
T1 construct: His6 (C); made in house; host or cells: E. coli BL21 (DE3), pET-28a(+)
Briefly: HPLC-based kinetic assay, PARP activity (auto-PARylation). Conditions: substrate of PARP1, 30° C. The assay is classed as biochemical. Here is the method:
(§1) High-performance Liquid Chromatography (HPLC)-based Kinetic Assays. Auto-PARylation of PARP1 was carried out in 80 μL assay solutions (30 mM HEPES, pH 8.0, 5 mM MgCl2, 5 mM CaCl2, 1 mM DTT, 100 ng/μL of activated DNA, 100 ng/μL BSA) containing varied concentrations of NAD^+ (50, 100, 250, 450, 600, and 750 μM) or NAD^+ analogues (2, 6; see Table 1) at 30° C. with purified PARP1 enzymes. The reactions were quenched at different time points (NAD^+: 0, 2.5, 5, 10, 15, and 20 min; 2: 0, 60, 120, 180, 240, and 300 min; 6: 0, 5, 10, 15, 20 and 30 min) using 20% ice-cold TCA. After centrifugation, the reaction mixtures were analyzed by reverse phase HPLC using a semipreparative C18 Kinetex column (5 μm, 100 Å, 150×10.0 mm, from Phenomenex Inc, Torrance, Calif.) (mobile phase A: 0.1% formic acid (aq); mobile phase B: 0.1% formic acid in acetonitrile; flow rate=2.0 ml/min; 0-8 min: 0% B, 8-12 min: 0-50% B, 12-13 min: 50-2.5% B, 13-18 min: 2.5-40% B, 18-20 min: 40-0% B) with detection of UV absorbance at 260 nm. […] NADase reaction rates were determined based on the increase in peak areas of the assigned peaks of ADPr and ADPr analogues, while reaction rates for PARP activities were measured based on the decrease in peak areas of the assigned peaks of NAD^+ and NAD^+ analogues excluding NADase activity. […]

The target of assay [2] is T1, purified human full-length PARP1. Put plainly: HPLC-based kinetic assay, NADase activity. The assay is classed as biochemical. The settings on record: hydrolysis catalyzed by PARP1, 30° C. How it is done:
as §1

Assay [3] has the same target. Conditions: literature value; read-out: Km with PARP1, previously reported value; cited from earlier work.
A further assay deals with wild type PARP1 (Homo sapiens, UniProt P09874). Put plainly: Automodification and click-chemistry based immunoblot activity analysis. In general terms: In western blotting, separated proteins are transferred to a membrane and probed.
Chain of wild type PARP1 (P09874 whole entry): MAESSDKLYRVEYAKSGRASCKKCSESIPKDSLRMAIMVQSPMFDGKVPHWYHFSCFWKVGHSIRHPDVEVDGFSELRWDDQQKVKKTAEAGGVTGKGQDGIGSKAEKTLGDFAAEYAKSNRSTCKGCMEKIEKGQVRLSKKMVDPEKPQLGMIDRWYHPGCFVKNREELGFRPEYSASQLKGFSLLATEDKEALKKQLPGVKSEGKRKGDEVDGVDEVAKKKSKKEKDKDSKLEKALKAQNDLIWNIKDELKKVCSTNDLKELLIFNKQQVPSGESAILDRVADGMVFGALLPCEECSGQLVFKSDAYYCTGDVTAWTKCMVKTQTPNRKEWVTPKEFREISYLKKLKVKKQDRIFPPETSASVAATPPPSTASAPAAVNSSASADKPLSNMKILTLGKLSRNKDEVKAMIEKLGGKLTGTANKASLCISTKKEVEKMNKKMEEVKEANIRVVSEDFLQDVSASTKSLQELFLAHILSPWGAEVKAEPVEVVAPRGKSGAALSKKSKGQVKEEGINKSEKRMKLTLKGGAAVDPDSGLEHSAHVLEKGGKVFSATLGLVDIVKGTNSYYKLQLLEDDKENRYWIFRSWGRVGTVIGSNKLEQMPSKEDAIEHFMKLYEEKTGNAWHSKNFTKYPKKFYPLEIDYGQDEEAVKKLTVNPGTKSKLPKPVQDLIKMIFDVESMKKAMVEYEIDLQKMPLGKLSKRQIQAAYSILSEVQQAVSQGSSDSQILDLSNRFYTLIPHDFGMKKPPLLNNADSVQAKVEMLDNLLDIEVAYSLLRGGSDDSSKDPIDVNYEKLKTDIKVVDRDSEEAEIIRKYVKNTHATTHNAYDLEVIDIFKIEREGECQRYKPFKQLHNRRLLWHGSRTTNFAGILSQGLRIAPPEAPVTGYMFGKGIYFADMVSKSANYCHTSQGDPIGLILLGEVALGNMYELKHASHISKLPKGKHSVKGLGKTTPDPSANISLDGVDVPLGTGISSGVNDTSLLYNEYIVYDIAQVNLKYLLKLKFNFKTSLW

Where two headings read alike, the source gives them in different places.

T1 sequence (P09874 whole entry): as above
Method for wild type PARP1: Automodification and Immunoblotting Activity Analysis. […] 20 μL of the reaction was taken out and saved for SDS-PAGE analysis. The remaining reaction mixtures were further labeled with azide-biotin (for 1-4) or phosphine-PEG3-Biotin (for 5 and 6) through copper(I)-catalyzed azide alkyne cycloaddition (CuAAC) and Staudinger reaction. The CuAAC reactions were performed for one hours at room temperature in 40 μL volume, which contain 30 μL PARP1 automodification mixtures, 2 mM THPTA, 1 mM CuSO4, 100 μM azide-biotin, and 10 mM sodium ascorbate in PBS. […] The levels of auto-PARylation were evaluated by immunoblots using a streptavidin-HRP conjugate for detection of the biotinylated PARP1 via click chemistry and Staudinger reaction.

Turning to `NC(=O)c1ccc[n+]([C@@H]2O[C@H](COP(=O)([O-])OP(=O)(O)OC[C@H]3O[C@@H](n4cnc5c(N)ncnc54)[C@H](O)[C@@H]3O)[C@@H](O)[C@H]2O)c1` [NAD^+, nicotinamide adenine dinucleotide], the Km in assay [1] is 145 ± 36 µM; in assay [2], 472 ± 187 µM; in assay [3], 97 ± 7 µM. For the same compound, the “kcat, PARP activity” value in assay [1] was 0.0783 ± 0.0067 s⁻¹. The “kcat, NADase activity” value in assay [2] worked out at 0.0065 ± 0.0013 s⁻¹. Besides, the “PARP1 automodification signal (substrate use), biotinylation-based immunoblot” value on wild type PARP1 (250 μM NAD^+ or analogue, 5 μM PARP1, 30° C., 2 hours) is recorded as “no automodification signals”.
Regarding `C[C@]1(c2nc3c(C(N)=O)cccc3[nH]2)CCCN1` [veliparib], the “suppression of PARP1 catalytic activity / automodification signal” value on wild type PARP1 (automodification with NAD2 and NAD6, versus no-inhibitor controls) is reported as “potently suppressed”.

The term Km denotes the substrate concentration at which the rate is half of its maximum.
